Assay results as given in patent US10968176B2, “Pyrrolidone derivatives, oligomers and polymers” (NanoSynthons LLC, priority 2014, dated 2021).
Read-outs that look alike come from different tables or passages of the source.

Assay: Fluorescence excitation/emission maxima and relative response per gram (luminescence spectrometer)
Type: physicochemical
Method: The appropriate alkyl or aryl amine (0.05 moles) was weighed into a 100 mL round-bottom flask equipped with a magnetic stirrer and containing 15 mL of dry methanol. While stirring, the appropriate dialkyl/diaryl itaconate (0.05 moles/primary amine moiety) dissolved in 15 mL of dry methanol was added dropwise over a period of 10 min. In some cases, a moderate exotherm was noted. The reaction was allowed to stir at RT for 1 h followed by refluxing for 8-10 h. The final product was obtained by removal of the solvent with a Buchi roto-evaporator to give a solid, liquid or syrup with yields ranging from 75-98%. See Table 2 in the Examples and FIGS. 3A-3B for their structures. These final products were characterized by FTIR, ^1H—, ^13C-NMR. Their UV-vis/fluorescence properties were evaluated with a fluorospectrometer (Spectramax from Molecular Devices) yielding data as described in Table 2 in the Examples.
Itaconic acid (Sigma-Aldrich) (0.05 moles/primary amine moiety) was weighed into a 100 mL round-bottom flask equipped with a magnetic stirrer. While stirring, the appropriate alkyl or aryl amine (0.05 moles) was added dropwise over a period of 10 min. […] The flask and reaction mixture was surmounted by a reflux condenser and immersed in an oil bath and heated at 125° C. for 2-5 h. The formation of water condensate from the reaction can be noticed in the condenser. A 25 mL portion of dry methanol is then added and the reaction mixture is refluxed for 1 h. Removal of solvent on a Buchi roto-evaporator produces the desired pyrrolidone product as an oil, syrup or solid in yields ranging from 59-95%. These final products were characterized by using a Thomas-Hoover capillary melting point apparatus, FTIR and ^1H—, ^13C-NMR. Their UV-vis/fluorescence properties were evaluated with a fluorescence spectrometer (Spectramax from Molecular Devices) yielding data as described in Table 2.
Fluorescence data was acquired with a Perkin-Elmer LS50B Luminescence spectrometer. Constant slit widths (Both excitation and emission—3 nm) were used and the concentrations were adjusted to give on scale emission responses. Emission responses were divided by concentration to give response per gram and multiplied by a scaling factor chosen to set the relative response of the standard, fluorescein-Na, to 1,000,000.

[1] = scaled so that fluorescein-Na = 1,000,000
[2] = peak 1, fluorescein-Na = 1,000,000
[3] = peak 2, fluorescein-Na = 1,000,000

| Structure (SMILES) | Emission Max [nm] | Excitation Max [nm] | Relative Response/g [1] | Emission Max (peak 1) [nm] | Excitation Max (peak 1) [nm] | Relative Response/g [2] | Emission Max (peak 2) [nm] | Excitation Max (peak 2) [nm] | Relative Response/g [3] |
| --- | --- | --- | --- | --- | --- | --- | --- | --- | --- |
| COC(=O)C1CC(=O)N(CCN2CC(C(=O)OC)CC2=O)C1 (stereo not drawn) [Compound 38] | 410 | 335 | 2.7 |  |  |  |  |  |  |
| NCCNC(=O)C1CC(=O)N(CCN2CC(C(=O)NCCN)CC2=O)C1 (stereo not drawn) [Compound 39] |  |  |  | 415 | 355 | 37.8 | 420 | 245 | 11.1 |
| COC(=O)C1CC(=O)N(CCNC(=O)C2CC(=O)N(CCN3CC(C(=O)NCCN4CC(C(=O)OC)CC4=O)CC3=O)C2)C1 (stereo not drawn) [Compound 40] | 390 | 305 | 66.4 |  |  |  |  |  |  |
| NCCNC(=O)C1CC(=O)N(CCNC(=O)C2CC(=O)N(CCN3CC(C(=O)NCCN4CC(C(=O)NCCN)CC4=O)CC3=O)C2)C1 (stereo not drawn) [Compound 41] |  |  |  | 390 | 340 | 62.7 | 455 | 285 | 18.7 |
| NCCNC(=O)C1CC(=O)N(CCNC(=O)C2CC(=O)N(CCNC(=O)C3CC(=O)N(CCN4CC(C(=O)NCCN5CC(C(=O)NCCN6CC(C(=O)NCCN)CC6=O)CC5=O)CC4=O)C3)C2)C1 (stereo not drawn) [Compound 43] | 440 | 355 | 22.8 |  |  |  |  |  |  |
| O=C([O-])c1ccccc1-c1c2ccc(=O)cc-2oc2cc([O-])ccc12.[Na+].[Na+] [Fluorescein-Na, reference compound] | 510 | 470 | 1,000,000.0 |  |  |  |  |  |  |

The next lines start with the values.

| Emission Max [nm] | Excitation Max [nm] | Relative Response/g [1] | Emission Max (peak 1) [nm] | Excitation Max (peak 1) [nm] | Relative Response/g [2] | Emission Max (peak 2) [nm] | Excitation Max (peak 2) [nm] | Relative Response/g [3] | Structure (SMILES) |
| --- | --- | --- | --- | --- | --- | --- | --- | --- | --- |
| 400 | 340 | 50.1 |  |  |  |  |  |  | c1ccc(C2=NCCN2)cc1 [2-Phenyl-2-imidazoline, reference compound] |
| 385 | 245 | 11.8 |  |  |  |  |  |  | O=C1CCC(C(=O)O)N1 (stereo not drawn) [2-Pyrrolidone-5-carboxylic acid, reference compound] |
| 350 | 300 | 18.7 |  |  |  |  |  |  | COC(=O)C1CC(=O)N(CCSSCCN2CC(C(=O)OC)CC2=O)C1 (stereo not drawn) [Compound 31] |
| 380 | 320 | 391.7 |  |  |  |  |  |  | COC(=O)C1CC(=O)N(CCNC(=O)C2CC(=O)N(CCSSCCN3CC(C(=O)NCCN4CC(C(=O)OC)CC4=O)CC3=O)C2)C1 (stereo not drawn) [Compound 33] |
| 301 | 277 | 5.8 |  |  |  |  |  |  | COC(=O)C1CC(=O)N(CCNC(=O)C2CC(=O)N(CCNC(=O)C3CC(=O)N(CCSSCCN4CC(C(=O)NCCN5CC(C(=O)NCCN6CC(C(=O)OC)CC6=O)CC5=O)CC4=O)C3)C2)C1 (stereo not drawn) [Compound 35] |
|  |  |  | 302 | 268 | 7.0 | 565 | 260 | 6.5 | COC(=O)C1CC(=O)N(CCNC(=O)C2CC(=O)N(CCNC(=O)C3CC(=O)N(CCNC(=O)C4CC(=O)N(CCSSCCN5CC(C(=O)NCCN6CC(C(=O)NCCN7CC(C(=O)NCCN8CC(C(=O)OC)CC8=O)CC7=O)CC6=O)CC5=O)C4)C3)C2)C1 (stereo not drawn) [Compound 37] |
| 405 | 335 | 30.7 |  |  |  |  |  |  | COC(=O)C1CC(=O)N(CCNC(=O)C2CC(=O)N(CCNC(=O)C3CC(=O)N(CCN4CC(C(=O)NCCN5CC(C(=O)NCCN6CC(C(=O)OC)CC6=O)CC5=O)CC4=O)C3)C2)C1 (stereo not drawn) [Compound 42] |
| 450 | 350 | 14.5 |  |  |  |  |  |  | COC(=O)C1CC(=O)N(CCNC(=O)C2CC(=O)N(CCNC(=O)C3CC(=O)N(CCNC(=O)C4CC(=O)N(CCN5CC(C(=O)NCCN6CC(C(=O)NCCN7CC(C(=O)NCCN8CC(C(=O)OC)CC8=O)CC7=O)CC6=O)CC5=O)C4)C3)C2)C1 (stereo not drawn) [Compound 44] |
